Assay results published in US8388966B2, “Combination treatment of pancreatic cancer” (Cancer Advances, Inc., priority 2001, dated 2013).
Where a name gives a salt, the structure may show the parent alone.

Legend:
[1] = system: hormone-refractory prostate cancer; conditions: 75 mg/m^2 every 21 days, cited from earlier work
AR42J cells = conditions: 1 nM CI-988; gastrin 1 nM; after 96 hours of treatment; cited from earlier work
[2] = system: gastrin-sensitive mouse colon tumor, MC26; conditions: xenograft mice bearing MC26; 25 days in control animals; cited from earlier work
pancreatic tumor = test: In vivo pancreatic tumor weight
Description: This second part of the example depicts cell proliferation of human pancreatic cell lines, PANC-1, BxPC3 and PAN-1 using a tetrazolium-based combined with anti-gastrin G17 antibodies induced by G17DT (10-500 μg/ml). The G17DT elicited antibodies are active against both serum-associated and tumor-secreted, proliferative forms of gastrin. The PAN-1 cell were administered at clinically reflective doses.
In vivo G17DT alone inhibited basal pancreatic tumor weight by 33% (p=0.016, ANOVA) compared to 38% for Gemcitabine (p=0.004, ANOVA). When combined the agents inhibited tumor weight by 55% which was significant from G17DT alone (p=0.025). Thus the immunological agent G17DT may promote the therapeutic efficacy of Gemcitabine.

[3] = after IV administration; cited from earlier work
[4] = in vivo; cited from earlier work
[5] = in vivo; cited from earlier work; remark: listed apart in the source

In the case of CC(=O)O[C@@]12CO[C@@H]1C[C@H](O)[C@@]1(C)C(=O)[C@H](O)C3=C(C)[C@@H](OC(=O)[C@H](O)[C@@H](NC(=O)OC(C)(C)C)c4ccccc4)C[C@@](O)([C@@H](OC(=O)c4ccccc4)[C@H]21)C3(C)C [docetaxel], the median overall survival [1] is given as 27 months, the “patients with response (more than 40% PSA decline and more than 50% reduction of bi-dimensional cross-products)” value ([1]; including one complete response) is given as 17 of the 35 and the “median duration of responses” value ([1]; range 2 to 24 months) is given as “nine”. The toxicity ([1]; two deaths during the study) was “remained tolerable throughout the treatment”.

In the case of C[C@](Cc1c[nH]c2ccccc12)(NC(=O)OC1[C@H]2C[C@@H]3C[C@@H](C[C@H]1C3)C2)C(=O)NC[C@H](NC(=O)CCC(=O)O)c1ccccc1 (stereo partly drawn) [CI-988], the “inhibition of proliferation of gastrin-stimulated AR42J cells” value (AR42J cells) is given as “about 47%”.

For CCCN(CCC)C(=O)C(CCC(=O)O)NC(=O)c1ccccc1 (stereo not drawn) [proglumide], the survival [2] is given as 39 days.

In the case of Nc1ccn([C@@H]2O[C@H](CO)[C@@H](O)C2(F)F)c(=O)n1 [Gemcitabine, 2′, 2′, difluorodeoxycytidine], the “inhibition of basal pancreatic tumor weight” value (pancreatic tumor) is given as 38%, the “excreted unchanged as gemcitabine” value [3] is given as 5% and the cumulative toxicity [4] is given as “no evidence of cumulative toxicity”. For the same molecule, the overall toxicity [4] was “moderate”.

For CCc1c2c(nc3ccc(OC(=O)N4CCC(N5CCCCC5)CC4)cc13)-c1cc3c(c(=O)n1C2)COC(=O)[C@]3(O)CC [Irinotecan, (S)-4,1-diethyl-3,4,12,14-tetrahydro-4-hydroxy-3,14-dioxi-[H-pyrano[3′,4′:67]-indolizino[1,2-b]quinolin-9-yl-[1,4′-bipiperidine]-1′-carboxylate, monohydrochloride, trihydrate], the G1 adverse effects [5] is given as “early and late diarrhea” and the “adverse effects in addition to the G1 manifestations” value [5] is given as “myelosuppresion and hypersensitivity reactions”.
